This data set deals with CCRIS mutagenicity, Ames/micronucleus/aberration tests. Nature of the data set: CCRIS mutagenicity studies.
[1] abbreviates: Test System: AMES SALMONELLA TYPHIMURIUM, Strain/Indicator: TA98, Metabolic Activation: NONE, Method: PREINCUBATION
Where [2] appears, read: Test System: AMES SALMONELLA TYPHIMURIUM, Strain/Indicator: TA100, Metabolic Activation: NONE, Method: PREINCUBATION
[3] abbreviates: Test System: AMES SALMONELLA TYPHIMURIUM, Strain/Indicator: TA1535, Metabolic Activation: HAMSTER, LIVER, S-9, AROCLOR 1254 (10%), Method: PREINCUBATION
Where [4] appears, read: Test System: AMES SALMONELLA TYPHIMURIUM, Strain/Indicator: TA1535, Metabolic Activation: NONE, Method: PREINCUBATION
The mark [5] stands for this setting: Test System: AMES SALMONELLA TYPHIMURIUM, Strain/Indicator: TA1535, Metabolic Activation: RAT, LIVER, S-9, AROCLOR 1254 (10%), Method: PREINCUBATION
Setting [6] is: Test System: AMES SALMONELLA TYPHIMURIUM, Strain/Indicator: TA1537, Metabolic Activation: NONE, Method: PREINCUBATION

Activity calls are given as the source filed them. No rule for the calls is given here.

In the case of `CC(C)CCCCCOC(=O)C[S][Sn]([CH3])([S]CC(=O)OCCCCCC(C)C)[S]CC(=O)OCCCCCC(C)C`, the mutagenic call is “inactive; negative” (Test System: AMES SALMONELLA TYPHIMURIUM, Strain/Indicator: TA97, Metabolic Activation: HAMSTER, LIVER, S-9, AROCLOR 1254 (10%), Method: PREINCUBATION); “inactive; negative” (Test System: AMES SALMONELLA TYPHIMURIUM, Strain/Indicator: TA97, Metabolic Activation: HAMSTER, LIVER, S-9, AROCLOR 1254 (30%), Method: PREINCUBATION); “inactive; negative” (Test System: AMES SALMONELLA TYPHIMURIUM, Strain/Indicator: TA97, Metabolic Activation: NONE, Method: PREINCUBATION); “inactive; negative” (Test System: AMES SALMONELLA TYPHIMURIUM, Strain/Indicator: TA97, Metabolic Activation: RAT, LIVER, S-9, AROCLOR 1254 (10%), Method: PREINCUBATION); “inactive; negative” (Test System: AMES SALMONELLA TYPHIMURIUM, Strain/Indicator: TA97, Metabolic Activation: RAT, LIVER, S-9, AROCLOR 1254 (30%), Method: PREINCUBATION); “inactive; negative” (Test System: AMES SALMONELLA TYPHIMURIUM, Strain/Indicator: TA98, Metabolic Activation: HAMSTER, LIVER, S-9, AROCLOR 1254 (10 OR 30%), Method: PREINCUBATION). Besides, the mutagenic call runs as follows: under setting [1], “inactive; negative”; (Test System: AMES SALMONELLA TYPHIMURIUM, Strain/Indicator: TA98, Metabolic Activation: RAT, LIVER, S-9, AROCLOR 1254 (10 OR 30%), Method: PREINCUBATION) “inactive; negative”; (Test System: AMES SALMONELLA TYPHIMURIUM, Strain/Indicator: TA100, Metabolic Activation: HAMSTER, LIVER, S-9, AROCLOR 1254 (10 OR 30%), Method: PREINCUBATION) “inactive; negative”; under setting [2], “inactive; negative”; (Test System: AMES SALMONELLA TYPHIMURIUM, Strain/Indicator: TA100, Metabolic Activation: RAT, LIVER, S-9, AROCLOR 1254 (10 OR 30%), Method: PREINCUBATION) “inactive; negative”; under setting [3], “inactive; negative”. For the same compound, the mutagenic call runs as follows: (Test System: AMES SALMONELLA TYPHIMURIUM, Strain/Indicator: TA1535, Metabolic Activation: HAMSTER, LIVER, S-9, AROCLOR 1254 (30%), Method: PREINCUBATION) “inactive; negative”; under setting [4], “inactive; negative”; under setting [5], “inactive; negative”; (Test System: AMES SALMONELLA TYPHIMURIUM, Strain/Indicator: TA1535, Metabolic Activation: RAT, LIVER, S-9, AROCLOR 1254 (30%), Method: PREINCUBATION) “inactive; negative”; (Test System: AMES SALMONELLA TYPHIMURIUM, Strain/Indicator: TA1537, Metabolic Activation: HAMSTER, LIVER, S-9, AROCLOR 1254 (30%), Method: PREINCUBATION) “inactive; negative”; under setting [6], “inactive; negative”. Also, the mutagenic call (Test System: AMES SALMONELLA TYPHIMURIUM, Strain/Indicator: TA1537, Metabolic Activation: RAT, LIVER, S-9, AROCLOR 1254 (30%), Method: PREINCUBATION) was “inactive; negative”.
`Oc1c(Br)cc(Br)cc1Br`: the mutagenic call reads like this: (Test System: AMES SALMONELLA TYPHIMURIUM, Strain/Indicator: TA98, Metabolic Activation: HAMSTER, LIVER, S-9, AROCLOR 1254 (10%), Method: PREINCUBATION) “inactive; negative”; (Test System: AMES SALMONELLA TYPHIMURIUM, Strain/Indicator: TA98, Metabolic Activation: HAMSTER, LIVER, S-9, AROCLOR 1254, Method: STANDARD PLATE) “inactive; negative”; under setting [1], “inactive; negative”; (Test System: AMES SALMONELLA TYPHIMURIUM, Strain/Indicator: TA98, Metabolic Activation: NONE, Method: STANDARD PLATE) “inactive; negative”; (Test System: AMES SALMONELLA TYPHIMURIUM, Strain/Indicator: TA98, Metabolic Activation: RAT, LIVER, S-9, AROCLOR 1254 (10%), Method: PREINCUBATION) “inactive; negative”; (Test System: AMES SALMONELLA TYPHIMURIUM, Strain/Indicator: TA98, Metabolic Activation: RAT, LIVER, S-9, AROCLOR 1254, Method: STANDARD PLATE) “inactive; negative”. Further, the mutagenic call (Test System: AMES SALMONELLA TYPHIMURIUM, Strain/Indicator: TA100, Metabolic Activation: HAMSTER, LIVER, S-9, AROCLOR 1254 (10%), Method: PREINCUBATION) was “inactive; negative”; the mutagenic call (Test System: AMES SALMONELLA TYPHIMURIUM, Strain/Indicator: TA100, Metabolic Activation: HAMSTER, LIVER, S-9, AROCLOR 1254, Method: STANDARD PLATE) was “inactive; negative”; the mutagenic call under setting [2] is “inactive; negative”; the mutagenic call (Test System: AMES SALMONELLA TYPHIMURIUM, Strain/Indicator: TA100, Metabolic Activation: NONE, Method: STANDARD PLATE) was “inactive; negative”; the mutagenic call (Test System: AMES SALMONELLA TYPHIMURIUM, Strain/Indicator: TA100, Metabolic Activation: RAT, LIVER, S-9, AROCLOR 1254 (10%), Method: PREINCUBATION) is “inactive; negative”; the mutagenic call (Test System: AMES SALMONELLA TYPHIMURIUM, Strain/Indicator: TA100, Metabolic Activation: RAT, LIVER, S-9, AROCLOR 1254, Method: STANDARD PLATE) is “inactive; negative”. Further, the mutagenic call runs as follows: under setting [3], “inactive; negative”; (Test System: AMES SALMONELLA TYPHIMURIUM, Strain/Indicator: TA1535, Metabolic Activation: HAMSTER, LIVER, S-9, AROCLOR 1254, Method: STANDARD PLATE) “inactive; negative”; under setting [4], “inactive; negative”; (Test System: AMES SALMONELLA TYPHIMURIUM, Strain/Indicator: TA1535, Metabolic Activation: NONE, Method: STANDARD PLATE) “inactive; negative”; under setting [5], “inactive; negative”; (Test System: AMES SALMONELLA TYPHIMURIUM, Strain/Indicator: TA1535, Metabolic Activation: RAT, LIVER, S-9, AROCLOR 1254, Method: STANDARD PLATE) “inactive; negative”. Moreover, the mutagenic call runs as follows: (Test System: AMES SALMONELLA TYPHIMURIUM, Strain/Indicator: TA1537, Metabolic Activation: HAMSTER, LIVER, S-9, AROCLOR 1254 (10%), Method: PREINCUBATION) “inactive; negative”; (Test System: AMES SALMONELLA TYPHIMURIUM, Strain/Indicator: TA1537, Metabolic Activation: HAMSTER, LIVER, S-9, AROCLOR 1254, Method: STANDARD PLATE) “inactive; negative”; under setting [6], “inactive; negative”; (Test System: AMES SALMONELLA TYPHIMURIUM, Strain/Indicator: TA1537, Metabolic Activation: NONE, Method: STANDARD PLATE) “inactive; negative”; (Test System: AMES SALMONELLA TYPHIMURIUM, Strain/Indicator: TA1537, Metabolic Activation: RAT, LIVER, S-9, AROCLOR 1254 (10%), Method: PREINCUBATION) “inactive; negative”; (Test System: AMES SALMONELLA TYPHIMURIUM, Strain/Indicator: TA1537, Metabolic Activation: RAT, LIVER, S-9, AROCLOR 1254, Method: STANDARD PLATE) “inactive; negative”. In addition, the mutagenic call (Test System: AMES SALMONELLA TYPHIMURIUM, Strain/Indicator: TA1538, Metabolic Activation: HAMSTER, LIVER, S-9, AROCLOR 1254, Method: STANDARD PLATE) is “inactive; negative”; the mutagenic call (Test System: AMES SALMONELLA TYPHIMURIUM, Strain/Indicator: TA1538, Metabolic Activation: NONE, Method: STANDARD PLATE) is “inactive; negative”; the mutagenic call (Test System: AMES SALMONELLA TYPHIMURIUM, Strain/Indicator: TA1538, Metabolic Activation: RAT, LIVER, S-9, AROCLOR 1254, Method: STANDARD PLATE) was “inactive; negative”; the mutagenic call (Test System: MOUSE LYMPHOMA, Strain/Indicator: L5178Y (TK+/TK-), Metabolic Activation: NONE, Method: SUSPENSION/PLATE) is “active; positive. reevaluation of results: positive”; the mutagenic call (Test System: MOUSE LYMPHOMA, Strain/Indicator: L5178Y (TK+/TK-), Metabolic Activation: RAT, LIVER, S-9, AROCLOR 1254, Method: SUSPENSION/PLATE) is “inactive; negative. reevaluation of results: negative”; the mutagenic call (Test System: Mouse lymphoma, Strain/Indicator: L5178Y (tk+/tk-), Metabolic Activation: None, Method: Suspension/plate) was “active; positive”. For the same compound, the mutagenic call (Test System: Mouse lymphoma, Strain/Indicator: L5178Y (tk+/tk-), Metabolic Activation: Rat, Liver, S-9, Aroclor 1254, Method: Suspension/plate) is “inactive; negative”.
Take `Oc1ccc2c3ccccc3c3cc4ccccc4cc3c2c1`: the mutagenic call (Test System: AMES SALMONELLA TYPHIMURIUM, Strain/Indicator: TA100, Metabolic Activation: RAT, LIVER, S-9, AROCLOR 1254, Method: PREINCUBATION) was “active; positive”.
As to `Cc1cc(=O)oc2ccc3c(c12)C1(C)OOC1(C)O3` (configuration not stated), the mutagenic call under setting [2] is “active; positive”.

For the origin of these results see PubChem BioAssay AID1259407 (Chemical Carcinogenesis Research Information System (CCRIS), 2018).
